Results: ChEMBL document CHEMBL4715837, “Dimeric aryl-substituted imidazoles may inhibit ALT cancer by targeting the multimeric G-quadruplex in telomere” (Eur J Med Chem, 2020)
Each block holds one molecule with its values, some of them ahead of it. Calls of active or inactive are those of the source. The calls are words filed in the database; no cut-off is given here.

Columns and labels:
[1] = tested on: Quadruplex DNA; experiment: Binding affinity at Tel21 G4 quadruplex DNA (unknown origin) assessed as change in melting temperature at 6 uM by circular dichroism spectrophotometric method; format: nucleic acid
[2] = tested on: Quadruplex DNA; experiment: Binding affinity at Tel45 G4 quadruplex DNA (unknown origin) assessed as change in melting temperature at 6 uM by circular dichroism spectrophotometric method; format: nucleic-acid assay
[3] = tested on: U2OS; experiment: Cell cycle arrest in human U2OS cells assessed as accumulation at S phase at 0.6 uM measured after 24 hrs by propidium iodide staining based flow cytometry (reference value: 24%); format: functional
[4] = biological target: Quadruplex DNA; experiment: Binding affinity at Tel45 G4 quadruplex DNA (unknown origin) by fluorescence spectroscopic analysis; format: nucleic-acid assay
[5] = biological target: Quadruplex DNA; experiment: Binding affinity at Tel21 G4 quadruplex DNA (unknown origin) by fluorescence spectroscopic analysis; format: nucleic-acid assay
[6] = Binding affinity to hairpin duplex DNA (unknown origin) by fluorescence spectroscopic analysis
[7] = tested on: Quadruplex DNA; experiment: Binding affinity at Tel45 G4 quadruplex DNA (unknown origin) assessed as appearance of new long-lived unquenched species by time resolved fluorescence assay; format: nucleic-acid assay
[8] = tested on: Quadruplex DNA; experiment: Binding affinity at Tel21 G4 quadruplex DNA (unknown origin) by time resolved fluorescence analysis; format: nucleic-acid assay
[9] = Binding affinity to hairpin duplex DNA (unknown origin) by time resolved fluorescence analysis
[10] = tested on: Quadruplex DNA; experiment: Binding affinity to Tel45 G4 quadruplex DNA (unknown origin) assessed as compound-DNA complex formation at stoichiometry ratio of 1:1 by job-plot analysis; format: nucleic-acid assay
[11] = tested on: Quadruplex DNA; experiment: Binding affinity to 2-Ap25 labelled Tel45 G4 quadruplex DNA (unknown origin) up to 10 uM by fluorescence titration assay; format: nucleic-acid assay; conditions: dose microM <=10
[12] = tested on: Quadruplex DNA; experiment: Binding affinity to 2-Ap1 labelled Tel45 G4 quadruplex DNA (unknown origin) up to 10 uM by fluorescence titration assay; format: nucleic-acid assay; conditions: dose microM <=10
[13] = tested on: Quadruplex DNA; experiment: Binding affinity to 2-Ap46 labelled Tel45 G4 quadruplex DNA (unknown origin) up to 10 uM by fluorescence titration assay; format: nucleic-acid assay; conditions: dose microM <=10
[14] = biological target: Quadruplex DNA; experiment: Binding affinity at Tel45-6 mutant G4 quadruplex DNA (unknown origin) by fluorescence spectroscopic analysis; format: nucleic-acid assay
[15] = biological target: Quadruplex DNA; experiment: Binding affinity at Tel45-9 mutant G4 quadruplex DNA (unknown origin) by fluorescence spectroscopic analysis; format: nucleic-acid assay
[16] = tested on: Quadruplex DNA; experiment: Binding affinity at Tel45-6 mutant G4 quadruplex DNA (unknown origin) assessed as change in melting temperature at 6 uM by circular dichroism spectrophotometric method; format: nucleic-acid assay
[17] = tested on: Quadruplex DNA; experiment: Binding affinity at Tel45-9 mutant G4 quadruplex DNA (unknown origin) assessed as change in melting temperature at 6 uM by circular dichroism spectrophotometric method; format: nucleic-acid assay
[18] = tested on: U2OS; experiment: Cytotoxicity against human U2OS cells assessed as reduction in cell viability measured after 24 hrs by CCK8 assay
[19] = tested on: BJ; experiment: Cytotoxicity against human BJ cells assessed as reduction in cell viability measured after 24 hrs by CCK8 assay; format: cell-based
[20] = tested on: U2OS; experiment: Inhibition of colony formation in human U2OS cells supplemented with fresh medium containing compounds every 3 days for 7 days by crystal violet staining based assay; format: functional, cell-based; conditions: dose 0.12-0.5 µM, time 7.0 day
[21] = tested on: U2OS; experiment: Antimigratory activity in human U2OS cells measured after 24 hrs by wound scrape assay; format: functional, cell-based; conditions: dose 1.5-5 µM
[22] = tested on: U2OS; experiment: Cell cycle arrest in human U2OS cells assessed as increase in accumulation at S phase measured after 24 hrs by propidium iodide staining based flow cytometry; format: functional
[23] = tested on: U2OS; experiment: Cell cycle arrest in human U2OS cells assessed as accumulation at Sub-G1 phase at 0.6 uM measured after 24 hrs by propidium iodide staining based flow cytometry (reference value: 0.5%); format: functional
[24] = tested on: U2OS; experiment: Cell cycle arrest in human U2OS cells assessed as accumulation at G0/G1 phase at 0.6 uM measured after 24 hrs by propidium iodide staining based flow cytometry (reference value: 42%); format: functional
[25] = tested on: U2OS; experiment: Cell cycle arrest in human U2OS cells assessed as accumulation at G2/M phase at 0.6 uM measured after 24 hrs by propidium iodide staining based flow cytometry (reference value: 33.5%); format: functional
[26] = tested on: U2OS; experiment: Cell cycle arrest in human U2OS cells assessed as accumulation at Sub-G1 phase at 1.2 uM measured after 24 hrs by propidium iodide staining based flow cytometry (reference value: 0.5%); format: functional
[27] = tested on: U2OS; experiment: Cell cycle arrest in human U2OS cells assessed as accumulation at G0/G1 phase at 1.2 uM measured after 24 hrs by propidium iodide staining based flow cytometry (reference value: 42%); format: functional
[28] = tested on: U2OS; experiment: Cell cycle arrest in human U2OS cells assessed as accumulation at S phase at 1.2 uM measured after 24 hrs by propidium iodide staining based flow cytometry (reference value: 24%); format: functional
[29] = tested on: U2OS; experiment: Cell cycle arrest in human U2OS cells assessed as accumulation at G2/M phase at 1.2 uM measured after 24 hrs by propidium iodide staining based flow cytometry (reference value: 33.5%); format: functional
[30] = tested on: U2OS; experiment: Cell cycle arrest in human U2OS cells assessed as accumulation at Sub-G1 phase at 2.5 uM measured after 24 hrs by propidium iodide staining based flow cytometry (reference value: 0.5%); format: functional
[31] = tested on: U2OS; experiment: Cell cycle arrest in human U2OS cells assessed as accumulation at G0/G1 phase at 2.5 uM measured after 24 hrs by propidium iodide staining based flow cytometry (reference value: 42%); format: functional
[32] = tested on: U2OS; experiment: Cell cycle arrest in human U2OS cells assessed as accumulation at S phase at 2.5 uM measured after 24 hrs by propidium iodide staining based flow cytometry (reference value: 24%); format: functional
[33] = tested on: U2OS; experiment: Cell cycle arrest in human U2OS cells assessed as accumulation at G2/M phase at 2.5 uM measured after 24 hrs by propidium iodide staining based flow cytometry (reference value: 33.5%); format: functional
[34] = tested on: U2OS; experiment: Induction of apoptosis in human U2OS cells assessed as viable cells at 0.6 uM measured after 24 hrs by Annexin-V flour 633/propidium iodide staining based flow cytometry (reference value: 90%); format: functional; conditions: read-out: Activity
[35] = tested on: U2OS; experiment: Induction of apoptosis in human U2OS cells assessed as early apoptotic cells at 0.6 uM measured after 24 hrs by Annexin-V flour 633/propidium iodide staining based flow cytometry (reference value: 9.55%); format: functional
[36] = tested on: U2OS; experiment: Induction of apoptosis in human U2OS cells assessed as late apoptotic cells at 0.6 uM measured after 24 hrs by Annexin-V flour 633/propidium iodide staining based flow cytometry (reference value: 0.03%); format: functional
[37] = tested on: U2OS; experiment: Induction of apoptosis in human U2OS cells assessed as necrotic cells at 0.6 uM measured after 24 hrs by Annexin-V flour 633/propidium iodide staining based flow cytometry (reference value: 0.022%); format: functional
[38] = tested on: U2OS; experiment: Induction of apoptosis in human U2OS cells assessed as viable cells at 1.2 uM measured after 24 hrs by Annexin-V flour 633/propidium iodide staining based flow cytometry (reference value: 90%); format: functional; conditions: read-out: Activity
[39] = tested on: U2OS; experiment: Induction of apoptosis in human U2OS cells assessed as early apoptotic cells at 1.2 uM measured after 24 hrs by Annexin-V flour 633/propidium iodide staining based flow cytometry (reference value: 9.55%); format: functional
[40] = tested on: U2OS; experiment: Induction of apoptosis in human U2OS cells assessed as late apoptotic cells at 1.2 uM measured after 24 hrs by Annexin-V flour 633/propidium iodide staining based flow cytometry (reference value: 0.03%); format: functional
[41] = tested on: U2OS; experiment: Induction of apoptosis in human U2OS cells assessed as necrotic cells at 1.2 uM measured after 24 hrs by Annexin-V flour 633/propidium iodide staining based flow cytometry (reference value: 0.022%); format: functional
[42] = tested on: U2OS; experiment: Induction of apoptosis in human U2OS cells assessed as viable cells at 2.5 uM measured after 24 hrs by Annexin-V flour 633/propidium iodide staining based flow cytometry (reference value: 90%); format: functional; conditions: read-out: Activity
[43] = tested on: U2OS; experiment: Induction of apoptosis in human U2OS cells assessed as early apoptotic cells at 2.5 uM measured after 24 hrs by Annexin-V flour 633/propidium iodide staining based flow cytometry (reference value: 9.55%); format: functional
[44] = tested on: U2OS; experiment: Induction of apoptosis in human U2OS cells assessed as late apoptotic cells at 2.5 uM measured after 24 hrs by Annexin-V flour 633/propidium iodide staining based flow cytometry (reference value: 0.03%); format: functional
[45] = tested on: U2OS; experiment: Induction of apoptosis in human U2OS cells assessed as necrotic cells at 2.5 uM measured after 24 hrs by Annexin-V flour 633/propidium iodide staining based flow cytometry (reference value: 0.022%); format: functional

SMILES: CN1CCN(c2ccc(-c3nc(-c4ccc(-c5nc(-c6ccc(F)cc6)c(-c6ccc(N7CCN(C)CC7)cc6)[nH]5)cc4)[nH]c3-c3ccc(F)cc3)cc2)CC1
- Activity [3]: 25%
- deltaTm [1]: 1.7 °C
- ΔTm [2]: 12.7 °C
- Kd [4]: 4.6 µM
- Kd [5]: 18.4 µM
- Kd [6]: 51.7 µM
- Activity [7]: Active
- Activity [8]: Not Active
- Activity [9]: Not Active
- Activity [10]: Active
- Activity [11]: Active
- Activity [12]: inactive
- Activity [13]: inactive
- Kd [14]: 8.6 µM
- Kd [15]: 10.7 µM
- deltaTm [16]: 2.5 °C
- deltaTm [17]: 4.3 °C
- IC50 [18]: 2.1 µM
- IC50 [19]: 29.3 µM
- inhibition [20]: Dose-dependent effect
- Activity [21]: Dose-dependent effect
- Activity [22]: Dose-dependent effect
- Activity [23]: 0.3%
- Activity [24]: 41.4%
- Activity [25]: 33.4%
- Activity [26]: 0.4%
- Activity [27]: 39.3%
- Activity [28]: 25.9%
- Activity [29]: 34.4%
- Activity [30]: 3.4%
- Activity [31]: 36.5%
- Activity [32]: 32.2%
- Activity [33]: 27.9%
- viability at 0.6 µM [34]: 84.3%
- Activity [35]: 12.5%
- Activity [36]: 3.05%
- Activity [37]: 0.14%
- viability at 1.2 µM [38]: 76.8%
- Activity [39]: 17.9%
- Activity [40]: 4.78%
- Activity [41]: 0.53%
- viability at 2.5 µM [42]: 73.7%
- Activity [43]: 20%
- Activity [44]: 4.92%
- Activity [45]: 1.34%

SMILES: CN1CCN(c2ccc(-c3nc(-c4ccc(-c5nc(-c6ccc(N7CCN(C)CC7)cc6)c(-c6ccc(N7CCN(C)CC7)cc6)[nH]5)cc4)[nH]c3-c3ccc(N4CCN(C)CC4)cc3)cc2)CC1
- deltaTm [1]: 8.9 °C
- ΔTm [2]: 6.9 °C

SMILES: CN(C)c1ccc(Nc2c3ccc(NC(=O)CCN4CCCC4)cc3nc3cc(NC(=O)CCN4CCCC4)ccc23)cc1
- IC50 [18]: > 40 µM

Results, then the molecule that gave them:

- deltaTm [1]: 6.1 °C
- ΔTm [2]: 10.9 °C
SMILES: CN1CCN(c2ccc(-c3nc(-c4ccc(-c5nc(-c6ccc(F)cc6)c(-c6ccc(F)cc6)[nH]5)cc4)[nH]c3-c3ccc(N4CCN(C)CC4)cc3)cc2)CC1

- deltaTm [1]: 6.5 °C
- ΔTm [2]: 15.7 °C
SMILES: CN1CCN(c2ccc(-c3nc(-c4ccc(-c5nc(-c6ccc(F)cc6)c(-c6ccc(N7CCN(C)CC7)cc6)[nH]5)cc4)[nH]c3-c3ccc(N4CCN(C)CC4)cc3)cc2)CC1
